Row | melting point [°C] | SMILES
1 | 214 | CC(C)(C)OC(=O)Nc1ccc(C(=O)Nc2cccc(Nc3cc(-c4cccc5c4oc4ccccc45)ncn3)c2)cc1 [Compound 30, tert-Butyl N-{4-[3-(6-Dibenzofuran-4-yl-pyrimidin-4-ylamino)-phenylcarbamoyl]-phenyl}-carbamate]
2 | 87 to 90 | NCCc1ccc(C(=O)Nc2cccc(Nc3cc(-c4cccc5c4oc4ccccc45)ncn3)c2)cc1.O=C(O)C(F)(F)F [Compound 58, 4-(2-Amino-ethyl)-N-[3-(6-dibenzofuran-4-yl-pyrimidin-4-ylamino)-phenyl]-benzamide trifluoroacetate]
3 | 216 to 219 | CC(C)(C)OC(=O)NCc1cccc(C(=O)Nc2cccc(Nc3cc(-c4cccc5c4oc4ccccc45)ncn3)c2)c1 [Compound 29, tert-Butyl N-{3-[3-(6-Dibenzofuran-4-yl-pyrimidin-4-ylamino)-phenylcarbamoyl]-benzyl}-carbamate]
4 | 233 to 236 | CC(C)(C)OC(=O)NCc1ccc(C(=O)Nc2cccc(Nc3cc(-c4cccc5c4oc4ccccc45)ncn3)c2)cc1 [Compound 25, tert-Butyl {4-[3-(6-dibenzofuran-4-yl-pyrimidin-4-ylamino)-phenylcarbamoyl]-benzyl}-carbamate]
5 | 245 | CC(C)(C)OC(=O)NCc1ccnc(C(=O)Nc2ccc(Nc3cc(-c4cccc5c4oc4ccccc45)ncn3)cc2)c1 [Compound 24, tert-Butyl N-{2-[4-(6-Dibenzofuran-4-yl-pyrimidin-4-ylamino)-phenylcarbamoyl]-pyridin-4-ylmethyl}-carbamate]
6 | 195 to 205 | NCC(C(=O)Nc1ccc(Nc2cc(-c3cccc4c3oc3ccccc34)ncn2)cc1)c1ccc(Cl)c(Cl)c1.O=C(O)C(F)(F)F (stereo not drawn) [Compound 75, 3-Amino-N-[4-(6-dibenzofuran-4-yl-pyrimidin-4-ylamino)-phenyl]-2-(3,4-dichloro-phenyl)-propionamide trifluoroacetate]
7 | 138 to 145 | NCC(C(=O)Nc1cccc(Nc2cc(-c3cccc4c3oc3ccccc34)ncn2)c1)c1ccc(Cl)c(Cl)c1.O=C(O)C(F)(F)F (stereo not drawn) [Compound 76, 3-Amino-N-[3-(6-dibenzofuran-4-yl-pyrimidin-4-ylamino)-phenyl]-2-(3,4-dichlorophenyl)-propionamide trifluoroacetat]
8 | 145 to 150 | NCc1ccc(C(=O)Nc2ccc(Nc3cc(-c4cccc5c4oc4ccccc45)ncn3)cc2)cn1.O=C(O)C(F)(F)F [Compound 64, 6-Aminomethyl-N-[4-(6-dibenzofuran-4-yl-pyrimidin-4-ylamino)-phenyl]-nicotinamide trifluoroacetate]
9 | 202 | NCCc1ccc(C(=O)Nc2ccc(Nc3cc(-c4cccc5c4oc4ccccc45)ncn3)cc2)cc1.O=C(O)C(F)(F)F [Compound 55, 4-(2-Amino-ethyl)-N-[4-(6-dibenzofuran-4-yl-pyrimidin-4-ylamino)-phenyl]-benzamide trifluoroacetate]
10 | 245 to 251 | CN(C)c1cccc(C(=O)Nc2cccc(Nc3cc(-c4cccc5c4oc4ccccc45)ncn3)c2)c1 [Compound 48, N-[3-(6-Dibenzofuran-4-yl-pyrimidin-4-ylamino)-phenyl]-3-dimethylamino-benzamide]
11 | > 250 | CC(C)(C)OC(=O)NCCc1ccc(C(=O)Nc2ccc(Nc3cc(-c4cccc5c4oc4ccccc45)ncn3)cc2)cc1 [Compound 23, tert-Butyl N-(2-{4-[4-(6-Dibenzofurane-4-yl-pyrimidin-4-ylamino)-phenylcarbamoyl]phenyl}-ethyl)-carbamate]
12 | 160 to 163 | CC(C)(C)OC(=O)Nc1cccc(C(=O)Nc2cccc(Nc3cc(-c4cccc5c4oc4ccccc45)ncn3)c2)c1 [Compound 28, tert-Butyl {3-[3-(6-dibenzofuran-4-yl-pyrimidin-4-ylamino)-phenylcarbamoyl]-phenyl}-carbamate]
13 | 251 to 255 | NCc1ccc(CC(=O)Nc2ccc(Nc3cc(-c4cccc5c4oc4ccccc45)ncn3)cc2)cc1.O=C(O)C(F)(F)F [Compound 66, 2-(4-Aminomethyl-phenyl)-N-[4-(6-dibenzofuran-4-yl-pyrimidin-4-ylamino)-phenyl]-acetamide trifluoroacetate]
14 | 136 to 138 | Nc1ccccc1C(=O)Nc1ccc(Nc2cc(-c3cccc4c3oc3ccccc34)ncn2)cc1.O=C(O)C(F)(F)F [Compound 50, 2-Amino-N-[4-(6-dibenzofuran-4-yl-pyrimidin-4-ylamino)-phenyl]-benzamide trifluoroacetate]
15 | 239 to 241 | CC(C)(C)OC(=O)NCCc1ccc(C(=O)Nc2cccc(Nc3cc(-c4cccc5c4oc4ccccc45)ncn3)c2)cc1 [Compound 26, tert-Butyl N-(2-{4-[3-(6-dibenzofuran-4-yl-pyrimidin-4-ylamino)-phenylcarbamoyl]-phenyl}-ethyl)-carbamate]
16 | 248 to 250 | NCc1cc(C(=O)Nc2ccc(Nc3cc(-c4cccc5c4oc4ccccc45)ncn3)cc2)ccn1.O=C(O)C(F)(F)F [Compound 65, 2-Aminomethyl-N-[4-(6-dibenzofuran-4-yl-pyrimidin-4-ylamino)-phenyl]-isonicotinamide trifluoroacetate]

More lines, now with the values behind:

Row | SMILES | melting point [°C]
17 | O=C(Nc1ccc(Nc2cc(-c3cccc4c3oc3ccccc34)ncn2)cc1)c1ccc(CN2CCOCC2)cc1 [Compound 13, N-[4-(6-Dibenzofuran-4-yl-pyrimidin-4-ylamino)-phenyl]-4-morpholin-4-ylmethyl-benzamide] | > 250
18 | CN(C)c1ccc(C(=O)Nc2ccc(Nc3cc(-c4cccc5c4oc4ccccc45)ncn3)cc2)cc1 [Compound 2, N-[4-(6-Dibenzofuran-4-yl-pyrimidin-4-ylamino)-phenyl]-4-dimethylamino-benzamide] | 285 to 300
19 | CC(C)(C)OC(=O)NCc1ccc(C(=O)Nc2ccc(Nc3cc(-c4cccc5c4oc4ccccc45)ncn3)cc2)cc1 [Compound 17, tert-Butyl N-{4-[4-(6-dibenzofuran-4-yl-pyrimidin-4-ylamino)-phenylcarbamoyl]-benzyl}-carbamate] | 311 to 321
20 | CN(C)c1cccc(C(=O)Nc2ccc(Nc3cc(-c4cccc5c4oc4ccccc45)ncn3)cc2)c1 [Compound 10, N-[4-(6-Dibenzofuran-4-yl-pyrimidin-4-ylamino)-phenyl]-3-dimethylamino-benzamide] | 225 to 232
21 | CN(C)c1ccccc1C(=O)Nc1ccc(Nc2cc(-c3cccc4c3oc3ccccc34)ncn2)cc1 [Compound 5, N-[4-(6-Dibenzofuran-4-yl-pyrimidin-4-ylamino)-phenyl]-2-dimethylamino-benzamide] | 246 to 249
22 | CC(C)(C)OC(=O)Nc1ccc(CC(=O)Nc2ccc(Nc3cc(-c4cccc5c4oc4ccccc45)ncn3)cc2)cc1 [Compound 21, tert-Butyl N-(4-{[4-(6-dibenzofuran-4-yl-pyrimidin-4-ylamino)-phenylcarbamoyl]-methyl}-phenyl)-carbamate] | > 320
23 | CN1CCN(Cc2ccc(C(=O)Nc3ccc(Nc4cc(-c5cccc6c5oc5ccccc56)ncn4)cc3)cc2)CC1 [Compound 3, N-[4-(6-Dibenzofuran-4-yl-pyrimidin-4-ylamino)-phenyl]-4-(4-methyl-piperazin-1-ylmethyl)-benzamide] | 270 to 274
24 | CC(C)(C)OC(=O)Nc1ccccc1C(=O)Nc1ccc(Nc2cc(-c3cccc4c3oc3ccccc34)ncn2)cc1 [Compound 18, tert-Butyl N-{2-[4-(6-Dibenzofuran-4-yl-pyrimidin-4-ylamino)-phenylcarbamoyl]-phenyl}-carbamate] | > 340
25 | Nc1cccc(C(=O)Nc2cccc(Nc3cc(-c4cccc5c4oc4ccccc45)ncn3)c2)c1.O=C(O)C(F)(F)F | 150 to 153
26 | O=C(Nc1ccc(Nc2cc(-c3cccc4c3oc3ccccc34)ncn2)cc1)c1ccc(N2CCOCC2)nc1 [Compound 15, N-[4-(6-Dibenzofuran-4-yl-pyrimidin-4-ylamino)-phenyl]-6-morpholin-4-yl-nicotinamide] | 310 to 312
27 | CC(C)(C)OC(=O)NCc1cccc(C(=O)Nc2ccc(Nc3cc(-c4cccc5c4oc4ccccc45)ncn3)cc2)c1 [Compound 22, tert-Butyl N-{3-[4-(6-Dibenzofuran-4-yl-pyrimidin-4-ylamino)-phenylcarbamoyl]-benzyl}-carbamate] | 237
28 | CC(C)(C)OC(=O)N1CCCC(c2ccc(C(=O)Nc3ccc(Nc4cc(-c5cccc6c5oc5ccccc56)ncn4)cc3)cc2)C1 (stereo not drawn) [Compound 20, tert-Butyl 3-{4-[4-(6-Dibenzofuran-4-yl-pyrimidin-4-ylamino)-phenylcarbamoyl]-phenyl}-piperidin-1-carboxylate] | 259 to 261
29 | Nc1ccc(CC(=O)Nc2ccc(Nc3cc(-c4cccc5c4oc4ccccc45)ncn3)cc2)cc1.O=C(O)C(F)(F)F | 125 to 130
30 | CN1CCN(c2ccc(C(=O)Nc3ccc(Nc4cc(-c5cccc6c5oc5ccccc56)ncn4)cc3)cc2)CC1 [Compound 14, N-[4-(6-Dibenzofuran-4-yl-pyrimidin-4-ylamino)-phenyl]-4-(4-methyl-piperazin-1-yl)-benzamide] | 304 to 319
31 | CC(C)(C)c1ccc(C(=O)Nc2ccc(Nc3cc(-c4cccc5c4oc4ccccc45)ncn3)cc2)cc1 [Compound 8, 4-tert-Butyl-N-[4-(6-dibenzofuran-4-yl-pyrimidin-4-ylamino)-phenyl]-benzamide] | 261 to 263
32 | COCCC(CCOC)c1cccc(C(=O)Nc2ccc(Nc3cc(-c4cccc5c4oc4ccccc45)ncn3)cc2)c1 [Compound 16, N-[4-(6-Dibenzofuran-4-yl-pyrimidin-4-ylamino)-phenyl]-3-[3-methoxy-1-(2-methoxyethyl)-propyl]-benzamide] | 186 to 188
33 | O=C(Nc1ccc(Nc2cc(-c3cccc4c3oc3ccccc34)ncn2)cc1)c1ccccc1 [Compound 7, N-[4-(6-Dibenzofuran-4-yl-pyrimidin-4-ylamino)-phenyl]-benzamide] | 323 to 325

Reference: patent US7879853B2, “4,6-disubstituted pyrimidines and their use as protein kinase inhibitors” (Bayer Schering Pharma AG, priority 2004, dated 2011)
